Measurements as given in PubChem BioAssay (NCI).
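Protocol summary: plate cells (96-well), add compound at 5 concentrations, incubate 48 h, interpolate endpoints linearly. At the TGI there is no net growth.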

Assays:
Assay in all cases: growth of human tumour cells (NCI), 48 h
786-0 renal = test system: 786-0 renal
A498 renal = test system: A498 renal
A549 NSCLC = test system: A549 NSCLC
ACHN renal = test system: ACHN renal
BT-549 breast = test system: BT-549 breast
CAKI-1 renal = test system: CAKI-1 renal
CCRF-CEM leukemia = test system: CCRF-CEM leukemia
COLO 205 colon = test system: COLO 205 colon
DLD-1 colon = test system: DLD-1 colon
DMS 114 small cell lung = test system: DMS 114 small cell lung
DMS 273 small cell lung = test system: DMS 273 small cell lung
DU-145 prostate = test system: DU-145 prostate
EKVX NSCLC = test system: EKVX NSCLC
HCC-2998 colon = test system: HCC-2998 colon
HCT-116 colon = test system: HCT-116 colon
HCT-15 colon = test system: HCT-15 colon
HL-60(TB) leukemia = test system: HL-60(TB) leukemia
HOP-18 NSCLC = test system: HOP-18 NSCLC
HOP-62 NSCLC = test system: HOP-62 NSCLC
HOP-92 NSCLC = test system: HOP-92 NSCLC
HS 578T breast = test system: HS 578T breast
HT29 colon = test system: HT29 colon
IGROV1 ovarian = test system: IGROV1 ovarian
K-562 leukemia = test system: K-562 leukemia
KM12 colon = test system: KM12 colon
KM20L2 colon = test system: KM20L2 colon
LOX IMVI melanoma = test system: LOX IMVI melanoma
LXFL 529 NSCLC = test system: LXFL 529 NSCLC
M14 melanoma = test system: M14 melanoma
M19-MEL melanoma = test system: M19-MEL melanoma
MALME-3M melanoma = test system: MALME-3M melanoma
MCF7 breast = test system: MCF7 breast
MDA-MB-231 breast = test system: MDA-MB-231 breast
MDA-MB-435 = test system: MDA-MB-435
MDA-N = test system: MDA-N
MOLT-4 leukemia = test system: MOLT-4 leukemia
NCI-H226 lung = test system: NCI-H226 lung
NCI-H23 lung = test system: NCI-H23 lung
NCI-H460 lung = test system: NCI-H460 lung
NCI-H522 lung = test system: NCI-H522 lung
NCI/ADR-RES ovarian = test system: NCI/ADR-RES ovarian
OVCAR-3 ovarian = test system: OVCAR-3 ovarian
OVCAR-4 ovarian = test system: OVCAR-4 ovarian
OVCAR-5 ovarian = test system: OVCAR-5 ovarian
OVCAR-8 ovarian = test system: OVCAR-8 ovarian
PC-3 prostate = test system: PC-3 prostate
RPMI-8226 leukemia = test system: RPMI-8226 leukemia
RXF 393 renal = test system: RXF 393 renal
SF-268 CNS = test system: SF-268 CNS
SF-295 CNS = test system: SF-295 CNS
SF-539 CNS = test system: SF-539 CNS
SK-MEL-2 melanoma = test system: SK-MEL-2 melanoma
SK-MEL-28 melanoma = test system: SK-MEL-28 melanoma
SK-MEL-5 melanoma = test system: SK-MEL-5 melanoma
SK-OV-3 ovarian = test system: SK-OV-3 ovarian
SN12C renal = test system: SN12C renal
SNB-19 CNS = test system: SNB-19 CNS
SNB-75 CNS = test system: SNB-75 CNS
SR leukemia = test system: SR leukemia
SW-620 colon = test system: SW-620 colon
T-47D breast = test system: T-47D breast
TK-10 renal = test system: TK-10 renal
U251 CNS = test system: U251 CNS
UACC-257 melanoma = test system: UACC-257 melanoma
UACC-62 melanoma = test system: UACC-62 melanoma
UO-31 renal = test system: UO-31 renal
SNB-78 CNS = test system: SNB-78 CNS

Compound: O=C(c1nc2ccc([N+](=O)[O-])cc2[nH]c1=O)C(O)c1ccc2c(c1)OCO2 (stereo not given)
- TGI (786-0 renal): > 100 µM
- TGI (A498 renal): > 100 µM
- TGI (A549 NSCLC): > 100 µM
- TGI (ACHN renal): > 100 µM
- TGI (BT-549 breast): > 100 µM
- TGI (CAKI-1 renal): > 100 µM
- TGI (CCRF-CEM leukemia): > 100 µM
- TGI (COLO 205 colon): > 100 µM
- TGI (DLD-1 colon): > 100 µM
- TGI (DMS 114 small cell lung): > 100 µM
- TGI (DMS 273 small cell lung): > 100 µM
- TGI (DU-145 prostate): > 100 µM
- TGI (EKVX NSCLC): > 100 µM
- TGI (HCC-2998 colon): > 100 µM
- TGI (HCT-116 colon): > 100 µM
- TGI (HCT-15 colon): > 100 µM
- TGI (HL-60(TB) leukemia): > 100 µM
- TGI (HOP-18 NSCLC): > 100 µM
- TGI (HOP-62 NSCLC): > 100 µM
- TGI (HOP-92 NSCLC): > 100 µM
- TGI (HS 578T breast): > 100 µM
- TGI (HT29 colon): > 100 µM
- TGI (IGROV1 ovarian): > 100 µM
- TGI (K-562 leukemia): > 100 µM
- TGI (KM12 colon): > 93 µM
- TGI (KM20L2 colon): > 100 µM
- TGI (LOX IMVI melanoma): > 100 µM
- TGI (LXFL 529 NSCLC): > 100 µM
- TGI (M14 melanoma): > 100 µM
- TGI (M19-MEL melanoma): > 100 µM
- TGI (MALME-3M melanoma): > 100 µM
- TGI (MCF7 breast): > 100 µM
- TGI (MDA-MB-231 breast): > 100 µM
- TGI (MDA-MB-435): > 100 µM
- TGI (MDA-N): > 100 µM
- TGI (MOLT-4 leukemia): > 100 µM
- TGI (NCI-H226 lung): > 100 µM
- TGI (NCI-H23 lung): > 100 µM
- TGI (NCI-H460 lung): > 100 µM
- TGI (NCI-H522 lung): > 100 µM
- TGI (NCI/ADR-RES ovarian): > 100 µM
- TGI (OVCAR-3 ovarian): > 100 µM
- TGI (OVCAR-4 ovarian): > 100 µM
- TGI (OVCAR-5 ovarian): > 100 µM
- TGI (OVCAR-8 ovarian): > 100 µM
- TGI (PC-3 prostate): > 100 µM
- TGI (RPMI-8226 leukemia): > 100 µM
- TGI (RXF 393 renal): > 100 µM
- TGI (SF-268 CNS): > 100 µM
- TGI (SF-295 CNS): > 100 µM
- TGI (SF-539 CNS): > 100 µM
- TGI (SK-MEL-2 melanoma): > 100 µM
- TGI (SK-MEL-28 melanoma): > 100 µM
- TGI (SK-MEL-5 melanoma): > 100 µM
- TGI (SK-OV-3 ovarian): > 100 µM
- TGI (SN12C renal): > 100 µM
- TGI (SNB-19 CNS): > 100 µM
- TGI (SNB-75 CNS): > 100 µM
- TGI (SR leukemia): > 100 µM
- TGI (SW-620 colon): > 100 µM
- TGI (T-47D breast): > 100 µM
- TGI (TK-10 renal): > 100 µM
- TGI (U251 CNS): > 100 µM
- TGI (UACC-257 melanoma): > 100 µM
- TGI (UACC-62 melanoma): > 100 µM
- TGI (UO-31 renal): > 100 µM

Compound: CCC1(N=[N+]=[N-])C(=O)c2ccccc2N(C)C1=O (stereo not given)
- TGI (786-0 renal): > 100 µM
- TGI (A498 renal): > 100 µM
- TGI (A549 NSCLC): > 100 µM
- TGI (ACHN renal): > 100 µM
- TGI (CAKI-1 renal): > 100 µM
- TGI (CCRF-CEM leukemia): > 100 µM
- TGI (COLO 205 colon): > 100 µM
- TGI (DLD-1 colon): > 100 µM
- TGI (DMS 114 small cell lung): > 100 µM
- TGI (DMS 273 small cell lung): > 100 µM
- TGI (EKVX NSCLC): > 100 µM
- TGI (HCC-2998 colon): > 100 µM
- TGI (HCT-116 colon): > 100 µM
- TGI (HCT-15 colon): > 100 µM
- TGI (HL-60(TB) leukemia): > 100 µM
- TGI (HOP-18 NSCLC): > 100 µM
- TGI (HOP-62 NSCLC): > 100 µM
- TGI (HOP-92 NSCLC): > 100 µM
- TGI (HT29 colon): > 100 µM
- TGI (IGROV1 ovarian): > 100 µM
- TGI (K-562 leukemia): > 100 µM
- TGI (KM12 colon): > 100 µM
- TGI (KM20L2 colon): > 100 µM
- TGI (LOX IMVI melanoma): > 100 µM
- TGI (LXFL 529 NSCLC): > 100 µM
- TGI (M14 melanoma): > 100 µM
- TGI (M19-MEL melanoma): > 100 µM
- TGI (MALME-3M melanoma): > 100 µM
- TGI (MOLT-4 leukemia): > 100 µM
- TGI (NCI-H23 lung): > 100 µM
- TGI (NCI-H460 lung): > 100 µM
- TGI (NCI-H522 lung): > 100 µM
- TGI (OVCAR-3 ovarian): > 100 µM
- TGI (OVCAR-4 ovarian): > 100 µM
- TGI (OVCAR-5 ovarian): > 100 µM
- TGI (OVCAR-8 ovarian): > 100 µM
- TGI (SF-268 CNS): > 100 µM
- TGI (SF-295 CNS): > 100 µM
- TGI (SF-539 CNS): > 100 µM
- TGI (SK-MEL-2 melanoma): > 100 µM
- TGI (SK-MEL-28 melanoma): > 100 µM
- TGI (SK-MEL-5 melanoma): > 100 µM
- TGI (SK-OV-3 ovarian): > 100 µM
- TGI (SN12C renal): > 100 µM
- TGI (SNB-19 CNS): > 100 µM
- TGI (SNB-75 CNS): > 100 µM
- TGI (SNB-78 CNS): > 100 µM
- TGI (SR leukemia): > 100 µM
- TGI (SW-620 colon): > 100 µM
- TGI (TK-10 renal): > 100 µM
- TGI (U251 CNS): > 100 µM
- TGI (UACC-257 melanoma): > 100 µM
- TGI (UACC-62 melanoma): > 100 µM
- TGI (UO-31 renal): > 100 µM
